Target: T1, human CA-II (Homo sapiens, UniProt P00918)
T1 construct: purchased Sigma-Aldrich C6165
Assay: Carbonic Anhydrase-II (CA-II) Fluorimetric Assay-IC50 Determination
Format: biochemical
Details: for inhibition at 0.1 µM: at 100 nM (c7); for inhibition at 0.1 µM / inhibition at 0.01 µM: read-out: CA-II % inhibition at concentration of column 7; for IC50: given instead of Kd (ND), read-out: CA-II IC50; for inhibition at 0.01 µM: at 10 nM (c7)
Description: Carbonic Anhydrase-II (CA-II) Fluorimetric Assay-IC50 Determination
Compounds were diluted in DMSO at the concentration of 1 mM, then 50 μM and transferred to a 96-well plate for further dilutions (1:3 dilution, 11 points) in duplicate. Highest final concentration of compound in this CA-II Fluorimetric assay is 1 μM. Assays were conducted in a final volume of 100 μL in 50 mM Tris/HCl (pH 7.6), 100 mM Na2SO4 and 0.005% Tween-20 in a 96-well black assay plate. Fluorescein diacetate was used as the substrate. Enzyme inhibition was determined by pipetting 8 μL of human CA-II (5 nM, from Sigma-Aldrich, product #: C6165) into assay plate contained 2 μL of compound and 2 μL of substrate (10 μM) in 88 μL of assay buffer. The rate of the hydrolysis of fluorescein diacetate were measured spectrophometrically at 488 nm (excitation), 538 nm (emission) and 530 nm (cutoff) using a Molecular Devices SpectraMax M2 fluorescence reader at 25° C.

Q: Which results are given for `NS(=O)(=O)c1ccc(-n2nc(C(=O)N3CC4CCCC3C4)nc2Cc2ccccc2)cc1` (stereo not shown) [Example R-26, 4-[3-(6-azabicyclo[3.2.1]oct-6-ylcarbonyl)-5-benzyl-1H-124-triazol-1-yl]bezenesulfonamide]?
A: inhibition at 0.1 µM: 99%; IC50: 2.84 nM

Q: `NS(=O)(=O)c1ccc(-n2nc(C(=O)N3CCCN(C=O)CC3)nc2Cc2ccccc2)cc1` [Example R-27, 4-(5-benzyl-3-[(4-formyl-14-diazepan-1-yl)carbonyl]-1H-124-triazol-1-yl)benzenesulfonamide] was tested. Which inhibition at 0.1 µM did it give?
A: The inhibition at 0.1 µM was 99%.

Q: How did the inhibition at 0.1 µM turn out when `CN(C(=O)c1nc(Cc2ccccc2)n(-c2ccc(S(N)(=O)=O)cc2)n1)C(C1CC1)C1CC1` [Example R-28, 1-[4-(aminosulfonyl)phenyl)-5-benzyl-N-(dicyclopropylmethyl)-N-methyl-1H-124-triazole-3-carboxamide] was run?
A: The inhibition at 0.1 µM was 99%.

Q: With `CCCN(C(=O)c1nc(Cc2ccccc2)n(-c2ccc(S(N)(=O)=O)cc2)n1)[C@@H](C)CO` [Example R-29, 1-[4-(aminosulfonyl)phenyl]-5-benzyl-N-[(1S)-2-hydroxy-1-methylethyl]-N-propyl-1H-124-triazole-3-carboxamide] as the molecule, how does the inhibition at 0.1 µM read?
A: The inhibition at 0.1 µM was 98%.

Q: `CN(C(=O)c1nc(Cc2ccccc2)n(-c2ccc(S(N)(=O)=O)cc2)n1)C1CCCC1` [Example R-30, 1-[4-(aminosulfonyl)phenyl]-5-benzyl-N-cyclopentyl-N-methyl-1H-124-triazole-3-carboxamide] was tested. Which inhibition at 0.1 µM did it give?
A: Its inhibition at 0.1 µM is 100%.

Q: What about the IC50 of the same molecule?
A: Its IC50 is 2.45 nM.

Q: Which results are given for `CC(C)CCN(C)C(=O)c1nc(Cc2ccccc2)n(-c2ccc(S(N)(=O)=O)cc2)n1` [Example R-31, 1-[4-(aminosulfonyl)phenyl]-5-benzyl-N-methyl-N-(3-methylbutyl)-1H-124-triazole-3-carboxamide]?
A: inhibition at 0.1 µM: 100%; IC50: 3.03 nM

Q: Which inhibition at 0.1 µM does the source give for `NS(=O)(=O)c1ccc(-n2nc(C(=O)N3CCOCC3)nc2Cc2ccccc2)cc1` [Example R-32, 4-[5-benzyl-3-(morpholin-4-ylcarbonyl)-1H-124-triazol-1-yl]benzenesulfonamide] here?
A: Its inhibition at 0.1 µM is 98%.

Q: What about the IC50 of the same molecule?
A: The IC50 was 3.56 nM.

Q: Which inhibition at 0.1 µM does the source give for `NS(=O)(=O)c1ccc(-n2nc(C(=O)NC3Cc4ccccc4C3)nc2Cc2ccccc2)cc1` [Example R-33, 1-[4-(aminosulfonyl)phenyl]-5-benzyl-N-(23-dihydro-1H-inden-2-yl)-1H-124-triazole-3-carboxamide] here?
A: Its inhibition at 0.1 µM is 101%.

Q: Which results are given for `CCN(CCOC)C(=O)c1nc(Cc2ccccc2)n(-c2ccc(S(N)(=O)=O)cc2)n1` [Example R-34, 1-[4-(aminosulfonyl)phenyl]-5-benzyl-N-ethyl-N-(2-methoxyethyl)-1H-124-triazole-3-carboxamide]?
A: inhibition at 0.1 µM: 99%; IC50: 2.99 nM

Q: With `NS(=O)(=O)c1ccc(-n2nc(C(=O)NCCNc3ccccn3)nc2Cc2ccccc2)cc1` [Example R-35, 1-[4-(aminosulfonyl)phenyl]-5-benzyl-N-[2-(pyridin-2-ylamino)ethyl]-1H-124-triazole-3-carboxamide] as the molecule, how does the inhibition at 0.1 µM read?
A: Its inhibition at 0.1 µM is 101%.

Q: With `CCCCN(CCC)C(=O)c1nc(Cc2ccccc2)n(-c2ccc(S(N)(=O)=O)cc2)n1` [Example R-36, 1-[4-(aminosulfonyl)phenyl]-5-benzyl-N-butyl-N-propyl-1H-124-triazole-3-carboxamide] as the molecule, how does the inhibition at 0.1 µM read?
A: Its inhibition at 0.1 µM is 100%.

Q: What about the IC50 of the same molecule?
A: The IC50 was 3.12 nM.

Q: `CCc1ccc(CN(C)C(=O)c2nc(Cc3ccccc3)n(-c3ccc(S(N)(=O)=O)cc3)n2)cc1` [Example R-37, 1-[4-(aminosulfonyl)phenyl]-5-benzyl-N-(4-ethylbenzyl)-N-methyl-1H-124-triazole-3-carboxamide] was tested. Which inhibition at 0.1 µM did it give?
A: Its inhibition at 0.1 µM is 99%.

Q: What about the IC50 of the same molecule?
A: Its IC50 is 2.89 nM.

Q: With `Cc1ccc(CN(C)C(=O)c2nc(Cc3ccccc3)n(-c3ccc(S(N)(=O)=O)cc3)n2)cc1` [Example R-38, 1-[4-(aminosulfonyl)phenyl]-5-benzyl-N-methyl-N-(4-methylbenzyl)-1H-124-triazole-3-carboxamide] as the molecule, how does the inhibition at 0.1 µM read?
A: The inhibition at 0.1 µM was 100%.

Q: And the IC50?
A: The IC50 was 3.13 nM.

Q: Which inhibition at 0.1 µM does the source give for `CCN(CC)CCN(CC)C(=O)c1nc(Cc2ccccc2)n(-c2ccc(S(N)(=O)=O)cc2)n1` [Example R-39, 1-[4-(aminosulfonyl)phenyl]-5-benzyl-N-[2-(diethylamino)ethyl]-N-ethyl-1H-124-triazole-3-carboxamide] here?
A: The inhibition at 0.1 µM was 97%.

Q: What about the IC50 of the same molecule?
A: The IC50 was 3.62 nM.

Q: With `CC(C)CN(CC(C)C)C(=O)c1nc(Cc2ccccc2)n(-c2ccc(S(N)(=O)=O)cc2)n1` [Example R-40, 1-[4-(aminosulfonyl)phenyl]-5-benzyl-NN-diisobutyl-1H-124-triazole-3-carboxamide] as the molecule, how does the inhibition at 0.1 µM read?
A: The inhibition at 0.1 µM was 98%.

Q: And the IC50?
A: The IC50 was 3.34 nM.

Q: For `CCN(CCC#N)C(=O)c1nc(Cc2ccccc2)n(-c2ccc(S(N)(=O)=O)cc2)n1` [Example R-41, 1[4-(aminosulfonyl)phenyl]-5-benzyl-N-(2-cyanoethyl)-N-ethyl-1H-124-triazole-3-carboxamide], which inhibition at 0.1 µM is on record?
A: Its inhibition at 0.1 µM is 99%.

Q: Which inhibition at 0.1 µM does the source give for `CN(CCOc1ccccc1)C(=O)c1nc(Cc2ccccc2)n(-c2ccc(S(N)(=O)=O)cc2)n1` [Example R-42, 1-[4-(aminosulfonyl)phenyl]-5-benzyl-N-methyl-N-(2-phenoxyethyl)-1H-124-triazole-3-carboxamide] here?
A: Its inhibition at 0.1 µM is 98%.

Q: What about the IC50 of the same molecule?
A: The IC50 was 3.78 nM.

Q: How did the inhibition at 0.1 µM turn out when `CCN(CCN(C)C)C(=O)c1nc(Cc2ccccc2)n(-c2ccc(S(N)(=O)=O)cc2)n1` [Example R-43, 1-[4-(aminosulfonyl)phenyl]-5-benzyl-N-[2-(dimethylamino)ethyl]-N-ethyl-1H-124-triazole-3-carboxamide] was run?
A: Its inhibition at 0.1 µM is 100%.

Q: How did the inhibition at 0.01 µM turn out when `CN(Cc1n[nH]c2c1CCCC2)C(=O)c1nc(Cc2ccccc2)n(-c2ccc(S(N)(=O)=O)cc2)n1` [Example R-44, 1-[4-(aminosulfonyl)phenyl]-5-benzyl-N-methyl-N-(4567-tetrahydro-1H-indazol-3-ylmethyl)-1H-124-triazole-3-carboxamide] was run?
A: The inhibition at 0.01 µM was 93%.

Q: Which inhibition at 0.01 µM does the source give for `CC(C)N(CC(O)c1ccccc1)C(=O)c1nc(Cc2ccccc2)n(-c2ccc(S(N)(=O)=O)cc2)n1` (stereo not shown) [Example R-45, 1-[4-(aminosulfonyl)phenyl]-5-benzyl-N-(2-hydroxy-2-phenylethyl)-N-isopropyl-1H-124-triazole-3-carboxamide] here?
A: The inhibition at 0.01 µM was 95%.

Q: For `CC1(c2ccccc2)CN(C(=O)c2nc(Cc3ccccc3)n(-c3ccc(S(N)(=O)=O)cc3)n2)CCO1` (stereo not shown) [Example R-46, 4-{5-benzyl-3-[(2-methyl-2-phenylmorpholin-4-yl)carbonyl]-1H-124-triazol-1-yl}benzenesulfonamide], which inhibition at 0.01 µM is on record?
A: Its inhibition at 0.01 µM is 96%.

Q: For `C[C@@H]([C@@H](O)c1ccccc1)N(C)C(=O)c1nc(Cc2ccccc2)n(-c2ccc(S(N)(=O)=O)cc2)n1` [Example R-47, 1-[4-(aminosulfonyl)phenyl]-5-benzyl-N-[(1S2S)-2-hydroxy-1-methyl-2-phenylethyl]-N-methyl-1H-124-triazole-3-carboxamide], which inhibition at 0.01 µM is on record?
A: Its inhibition at 0.01 µM is 90%.

Q: With `CN(CCc1ccccc1)C(=O)c1nc(Cc2ccccc2)n(-c2ccc(S(N)(=O)=O)cc2)n1` [Example R-48, 1-[4-(aminosulfonyl)phenyl]-5-benzyl-N-methyl-N-(2-phenylethyl)-1H-124-triazole-3-carboxamide] as the molecule, how does the inhibition at 0.01 µM read?
A: Its inhibition at 0.01 µM is 97%.

Q: How did the inhibition at 0.01 µM turn out when `CN(Cc1nc2ccc(F)cc2[nH]1)C(=O)c1nc(Cc2ccccc2)n(-c2ccc(S(N)(=O)=O)cc2)n1` [Example R-49, 1-[4-(aminosulfonyl)phenyl]-5-benzyl-N-[(6-fluoro-1H-benzimidazol-2-yl)methyl]-N-methyl-1H-124-triazole-3-carboxamide] was run?
A: The inhibition at 0.01 µM was 96%.

Q: `Cc1cc(CN(C)C(=O)c2nc(Cc3ccccc3)n(-c3ccc(S(N)(=O)=O)cc3)n2)n[nH]1` [Example R-50, 1-[4-(aminosulfonyl)phenyl]-5-benzyl-N-methyl-N-[(5-methyl-1H-pyrazol-3-yl)methyl]-1H-124-triazole-3-carboxamide] was tested. Which inhibition at 0.01 µM did it give?
A: Its inhibition at 0.01 µM is 95%.

Q: With `CCCc1cc(CN(C)C(=O)c2nc(Cc3ccccc3)n(-c3ccc(S(N)(=O)=O)cc3)n2)n[nH]1` [Example R-51, 1-[4-(aminosulfonyl)phenyl]-5-benzyl-N-methyl-N-[(5-propyl-1H-pyrazol-3-yl)methyl]-1H-124-triazole-3-carboxamide] as the molecule, how does the inhibition at 0.01 µM read?
A: Its inhibition at 0.01 µM is 97%.

Q: What does the source list for `NS(=O)(=O)c1ccc(-n2nc(C(=O)N3CCc4ccccc4C3)nc2Cc2ccccc2)cc1` [Example R-52, 4-[5-benzyl-3-(34-dihydroisoqionolin-2(1H)-ylcarbonyl)-1H-124-triazol-1-yl]benzenesulfonamide]?
A: inhibition at 0.01 µM: 96%; IC50: 2.83 nM

Q: What does the source list for `NS(=O)(=O)c1ccc(-n2nc(C(=O)N3CCCCC3Cc3ccccc3)nc2Cc2ccccc2)cc1` (stereo not shown) [Example R-53, 4-(5-benzyl-3-[(2-benzylpiperidin-1-yl)carbonyl]-1H-124-triazol-1-yl)benzenesulfonamide]?
A: inhibition at 0.01 µM: 92%; IC50: 3.36 nM

Q: With `CN(CC(C)(O)c1ccccc1)C(=O)c1nc(Cc2ccccc2)n(-c2ccc(S(N)(=O)=O)cc2)n1` (stereo not shown) [Example R-54, 1-[4-(aminosulfonyl)phenyl]-5-benzyl-N-(2-hydroxy-2-phenylpropyl)-N-methyl-1H-124-triazole-3-carboxamide] as the molecule, how does the inhibition at 0.01 µM read?
A: Its inhibition at 0.01 µM is 97%.

Q: How did the inhibition at 0.01 µM turn out when `NS(=O)(=O)c1ccc(-n2nc(C(=O)N3CCC(c4ccccn4)C3)nc2Cc2ccccc2)cc1` (stereo not shown) [Example R-55, 4-(5-benzyl-3-[(3-pyridin-2-ylpyrrolidin-1-yl)carbonyl]-1H-124-triazol-1-yl)benzenesulfonamide] was run?
A: Its inhibition at 0.01 µM is 97%.
